Paper PMC3257419 (Journal of Medicinal Chemistry, 2011)

What was measured:
[1] = test system: cocaine-induced increases in synaptic dopamine; assay: MicroPET imaging of [11C]-raclopride binding after cocaine; format: in vivo, rat; settings: cocaine alone, average
Sprague-Dawley rats = settings: Vigabatrin/Cocaine, vigabatrin 300 mg/kg; ref Dewey et al.[7]; cited from earlier work
alanine aminotransferase = settings: cited from earlier work
[2] = test system: succinic semialdehyde dehydrogenase; settings: cited from earlier work
GABA transport = settings: cited from earlier work
subjects = settings: trial of 103 subjects, placebo 7.5%; cited from earlier work
white matter of the CNS = settings: characterized as intramyelinic edema; cited from earlier work
patients = settings: following chronic administration; cited from earlier work

## COC(=O)[C@H]1[C@@H](OC(=O)c2ccccc2)C[C@@H]2CC[C@H]1N2C [Cocaine, reference compound]
[1]
  reduction of [11C]-raclopride binding: 22%

## C=CC(N)CCC(=O)O (stereo not drawn) [Vigabatrin, vigabatrin]
Sprague-Dawley rats
  Time in chamber (min) unpaired: 7.1 ± 0.6 min
Wistar albino rats; CPP-115 20 mg/kg, vigabatrin 200 mg/kg
  implicit times of the ERGs: little or no drug effect
Wistar albino rats; CPP-115 20 mg/kg, vigabatrin 200 mg/kg daily i.p.
  clinical observation in the first three weeks of treatment: sedative effects
Wistar albino rats; both sexes, both time points, data not shown
  10 Hz flicker ERGs compared to both CPP-115 and controls: significantly lower
Wistar albino rats; females, 200 mg/kg, data not shown
  rod, mesopic, and cone b-wave implicit times compared to controls or CPP-115: significantly increased
Alanine aminotransferase
  effect on alanine aminotransferase activity in vivo: reduce activities
[2]
  effect on succinic semialdehyde dehydrogenase activity in vivo: reduce activities
GABA transport
  action on GABA reuptake: GABA reuptake inhibitor
subjects
  subjects who achieved abstinence: 28%
White matter of the CNS
  CNS histopathological finding: microvacuolization in the white matter of the CNS
patients
  patients with visual field defects (VFDs): 25–50%
